Molecules are shown by their SMILES.

Consider 10 compounds from US8053553B2, “Targeting host proteinases as a therapeutic strategy against viral and bacterial pathogens” (Socpra Sciences Sante Et Humaines, priority 2007, dated 2011).

The target of one experiment is T1, furin (Homo sapiens, UniProt P09958).
T1 construct: made in house; host or cells: Drosophila S2 cells (Invitrogen expression system)
T1 sequence (P09958 108-794 limits assumed): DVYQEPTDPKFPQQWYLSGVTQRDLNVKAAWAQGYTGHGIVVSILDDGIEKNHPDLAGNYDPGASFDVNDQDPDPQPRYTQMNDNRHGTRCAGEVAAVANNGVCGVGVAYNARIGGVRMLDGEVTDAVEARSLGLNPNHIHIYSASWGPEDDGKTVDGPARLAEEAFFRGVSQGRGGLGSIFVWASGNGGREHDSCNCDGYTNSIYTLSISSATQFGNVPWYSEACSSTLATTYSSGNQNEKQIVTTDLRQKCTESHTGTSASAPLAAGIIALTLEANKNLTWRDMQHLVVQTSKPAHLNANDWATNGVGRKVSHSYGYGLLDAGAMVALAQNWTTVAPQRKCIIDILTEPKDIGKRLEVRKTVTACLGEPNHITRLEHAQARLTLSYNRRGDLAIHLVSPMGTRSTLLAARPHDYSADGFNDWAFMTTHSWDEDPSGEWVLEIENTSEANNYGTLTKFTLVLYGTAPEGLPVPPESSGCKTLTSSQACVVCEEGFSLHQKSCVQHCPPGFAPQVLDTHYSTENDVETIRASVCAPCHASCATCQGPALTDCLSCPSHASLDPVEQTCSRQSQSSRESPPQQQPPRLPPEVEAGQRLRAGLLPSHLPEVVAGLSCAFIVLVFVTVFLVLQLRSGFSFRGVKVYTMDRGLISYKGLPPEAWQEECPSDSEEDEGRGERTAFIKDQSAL
In words: biochemical. As to conditions: furin, Pyr-RTKR-AMC substrate; N-terminal deletions (Example 2, Table 6); read-out: Ki.
For the compound `C[C@H](NC(=O)[C@H](CCCNC(=N)N)NC(=O)[C@@H]1CCCN1)C(=O)N[C@@H](CCCNC(=N)N)C(=O)N[C@@H](CCCNC(=N)N)C(=O)N[C@@H](CCCNC(=N)N)C(=O)N[C@@H](CCCCN)C(=O)N[C@@H](CCCCN)C(=O)N[C@@H](CCCNC(=N)N)C(=O)N[C@H](C(N)=O)[C@@H](C)O`, the Ki worked out at 16.6 nM.

Still in this experiment, the particulars now being: furin, Pyr-RTKR-AMC substrate; alanine scanning mutagenesis of the H5 furin cleavage sequence (Table 2); read-out: Ki.
`C[C@H](NC(=O)[C@H](CCCNC(=N)N)NC(=O)[C@@H]1CCCN1C(=O)[C@@H](N)[C@@H](C)O)C(=O)N[C@@H](CCCNC(=N)N)C(=O)N[C@@H](CCCNC(=N)N)C(=O)N[C@@H](CCCNC(=N)N)C(=O)N[C@@H](CCCCN)C(=O)N[C@@H](CCCCN)C(=O)N[C@@H](CCCNC(=N)N)C(N)=O`: the Ki worked out at 138 nM.
Still for that read-out and setting: the value for `C[C@H](NC(=O)[C@H](CCCNC(=N)N)NC(=O)[C@@H]1CCCN1C(=O)[C@@H](N)[C@@H](C)O)C(=O)N[C@@H](CCCNC(=N)N)C(=O)N[C@@H](CCCNC(=N)N)C(=O)N[C@@H](CCCNC(=N)N)C(=O)N[C@@H](CCCCN)C(=O)N[C@@H](CCCCN)C(=O)N[C@@H](CCCNC(=N)N)C(=O)N(C)CC(N)=O` was greater than 100 nM; that for `C[C@H](NC(=O)[C@H](C)NC(=O)[C@H](CCCNC(=N)N)NC(=O)[C@H](CCCNC(=N)N)NC(=O)[C@H](CCCNC(=N)N)NC(=O)[C@H](CCC(=O)O)NC(=O)[C@H](CCCNC(=N)N)NC(=O)[C@@H]1CCCN1C(=O)[C@@H](N)[C@@H](C)O)C(=O)N[C@@H](CCCNC(=N)N)C(N)=O` was greater than 100 nM.
In the case of `C[C@H](NC(=O)[C@H](C)NC(=O)[C@H](CCCNC(=N)N)NC(=O)[C@H](CCCNC(=N)N)NC(=O)[C@H](CCCNC(=N)N)NC(=O)[C@H](CCC(=O)O)NC(=O)[C@H](CCCNC(=N)N)NC(=O)[C@@H]1CCCN1C(=O)[C@@H](N)[C@@H](C)O)C(=O)N[C@@H](CCCNC(=N)N)C(=O)NCC(N)=O`, the Ki is greater than 100 nM.

Staying with this experiment, now noted: furin, Pyr-RTKR-AMC substrate; optimization of the inhibitory peptides (Table 3); read-out: Ki.
`C[C@H](NC(=O)[C@H](CCCNC(=N)N)NC(=O)[C@H](CCC(N)=O)NC(=O)[C@@H]1CCCN1C(=O)[C@@H](N)[C@@H](C)O)C(=O)N[C@@H](CCCNC(=N)N)C(=O)N[C@@H](CCCNC(=N)N)C(=O)N[C@@H](CCCNC(=N)N)C(=O)N[C@@H](CCCCN)C(=O)N[C@@H](CCCCN)C(=O)N[C@@H](CCCNC(N)=O)C(=O)NCC(N)=O`: the Ki was greater than 100 nM.
Turning to `C[C@H](NC(=O)[C@H](CCCNC(=N)N)NC(=O)[C@H](CCC(N)=O)NC(=O)[C@@H]1CCCN1C(=O)[C@@H](N)[C@@H](C)O)C(=O)N[C@@H](CCCNC(=N)N)C(=O)N[C@@H](CCCNC(=N)N)C(=O)N[C@@H](CCCNC(=N)N)C(=O)N[C@@H](CCCCN)C(=O)N[C@@H](CCCCN)C(=O)N[C@@H](CCCNC(=N)N)C(=O)NCC(N)=O`, the Ki was greater than 100 nM.
Still for that read-out and setting: as for `C[C@H](NC(=O)[C@H](CCCNC(=N)N)NC(=O)[C@H](CCC(N)=O)NC(=O)[C@@H]1CCCN1C(=O)[C@@H](N)[C@@H](C)O)C(=O)N[C@@H](CCCNC(=N)N)C(=O)N[C@@H](CCCNC(=N)N)C(=O)N[C@@H](CCCNC(=N)N)C(=O)N[C@@H](CCCCN)C(=O)N[C@@H](CCCCN)C(=O)N[C@H](CCCNC(=N)N)C(=O)NCC(N)=O`, the figure is greater than 100 nM.
The same measure, in the same setting: the value for `C[C@@H](O)[C@H](N)C(=O)N1CCC[C@H]1C(=O)N[C@@H](CCC(N)=O)C(=O)N[C@@H](CCCNC(=N)N)C(=O)N[C@@H](CS)C(=O)N[C@@H](CCCNC(=N)N)C(=O)N[C@@H](CCCNC(=N)N)C(=O)N[C@@H](CCCNC(=N)N)C(=O)N[C@@H](CCCCN)C(=O)N[C@@H](CCCCN)C(=O)N[C@@H](CCCNC(=N)N)C(=O)NCC(N)=O` was greater than 100 nM.
With `C[C@@H](O)[C@H](N)C(=O)N1CCC[C@H]1C(=O)N[C@@H](CCC(N)=O)C(=O)N[C@@H](CCCNC(=N)N)C(=O)N[C@@H](CCC(=O)O)C(=O)N[C@@H](CCCNC(=N)N)C(=O)N[C@@H](CCCNC(=N)N)C(=O)N[C@@H](CCCNC(=N)N)C(=O)N[C@@H](CCCCN)C(=O)N[C@@H](CCCCN)C(=O)N[C@@H](CCCNC(=N)N)C(=O)NCC(N)=O`, the Ki is greater than 100 nM.

The term Ki denotes the equilibrium dissociation constant of an inhibitor or competing ligand from its target.
